Where two headings read alike, the source gives them in different places.
Assays:
[1] = test system: P. falciparum female gametocytes; assay: P. falciparum Dual Gamete Formation Assay (PfDGFA), female readout (Pfs25-positive female gametes); assay type: cell-based, Plasmodium falciparum NF54
In short: (§1)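 Two sex-specific readouts come from one well: male exflagellation centres recorded by brightfield video right after activation, and female gametes scored by Cy3-anti-Pfs25 fluorescence after 24 h at 28°C.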

[2] = test system: P. falciparum male gametocytes; assay: P. falciparum Dual Gamete Formation Assay (PfDGFA), male readout (exflagellation); assay type: cell-based, Plasmodium falciparum NF54; conditions: for Activity: hit = >50% inhibition in male or female readout in at least 3 replicates, 0 = no class assigned
In short: as §1

[3] = 2µM, 24h preincubation with gametocytes prior to induction of gametogenesis, average of replicates
[4] = 2µM, 24h preincubation with gametocytes prior to induction of gametogenesis, replicate R1
[5] = 2µM, 24h preincubation with gametocytes prior to induction of gametogenesis, replicate R3
[6] = 2µM, 24h preincubation with gametocytes prior to induction of gametogenesis, replicate R4
[7] = 2µM, 24h preincubation, number of replicates with >50% inhibition in the female readout
[8] = 2µM, 24h preincubation, number of replicates with >50% inhibition in the male readout
[9] = PfDGFA at 2µM, 24h preincubation with gametocytes prior to induction of gametogenesis, replicate R1
[10] = PfDGFA at 2µM, 24h preincubation with gametocytes prior to induction of gametogenesis, replicate R3
[11] = PfDGFA at 2µM, 24h preincubation with gametocytes prior to induction of gametogenesis, replicate R4
[12] = PfDGFA at 2µM, 24h preincubation, average of replicates
[13] = PfDGFA at 2µM, 24h preincubation with gametocytes, average of replicates
[14] = PfDGFA at 2µM, 24h preincubation with gametocytes, replicate R1
[15] = PfDGFA at 2µM, 24h preincubation with gametocytes, replicate R3
[16] = PfDGFA at 2µM, 24h preincubation with gametocytes, replicate R4
[17] = 2µM, 24h preincubation, hits selected on >50% inhibition in the female readout across replicates
[18] = 2µM, 24h preincubation, hits selected on >50% inhibition in the male readout across replicates
[19] = PfDGFA at 2µM, 24h preincubation

| SMILES | Average inhibition female (%) [1, 3] [%] | % inhibition female (individual replicates) R1 [1, 4] [%] | % inhibition female (individual replicates) R3 [1, 5] [%] | % inhibition female (individual replicates) R4 [1, 6] [%] | HitlevelF [1, 7] | Average inhibition male (%) [2, 3] [%] | % inhibition male (individual replicates) R1 [2, 4] [%] | % inhibition male (individual replicates) R3 [2, 5] [%] | % inhibition male (individual replicates) R4 [2, 6] [%] | HitlevelM [2, 8] | other results |
| --- | --- | --- | --- | --- | --- | --- | --- | --- | --- | --- | --- |
| CN(C)CCC1CCN(CCS(=O)(=O)c2cccc(Nc3ncc(-c4cccc(F)c4)cn3)c2)CC1 [TCMDC-134374] | 19.0 | 15.2 | 18.5 | 17.0 | 0 | 10.6 | 1.8 | -1.4 | 25.6 | 0 | – |
| COc1cccc(-c2csc(C(=O)NCC3CCN(Cc4ccc(C(C)(C)C)cc4)C3)c2)c1.O=C(O)C(F)(F)F (centres unmarked) [TCMDC-134447] | 52.6 | 33.4 | 31.5 | 78.5 | 2 | 11.1 | 23.9 | 12.3 | 2.2 | 0 | – |
| CCc1ccccc1-c1csc(C(=O)NCC2CCN(Cc3ccc(C(C)(C)C)cc3)C2)c1.O=C(O)C(F)(F)F (centres unmarked) [TCMDC-134448] | 31.2 | 30.8 | 36.1 | 25.0 | 0 | -3.3 | 5.2 | -15.7 | -8.5 | 0 | – |
| COc1cccc(OC)c1CN1CCC(N(C)CCCCCCCCN2CCC(OC(=O)Nc3ccccc3-c3ccccc3)CC2)CC1 [TCMDC-134684] | 31.6 | 24.1 | 24.2 | 37.8 | 0 | 52.6 | 48.0 | 25.4 | 71.6 | 2 | – |
| COc1ccc(NC(=O)[C@H](Cc2ccccc2)Nc2cc(C)nc(NCCc3ccccn3)n2)cc1.O=C(O)C(F)(F)F [TCMDC-134746] | – | – | – | – | – | – | – | – | – | – | % inhibition female (individual replicates) R1 [1, 9]: 14.8%; % inhibition female (individual replicates) R3 [1, 10]: -15.3%; % inhibition female (individual replicates) R4 [1, 11]: -1.8%; Average inhibition female (%) [1, 12]: 1.5%; % inhibition male (individual replicates) R1 [2, 9]: -7.8%; % inhibition male (individual replicates) R3 [2, 10]: -30.0%; % inhibition male (individual replicates) R4 [2, 11]: 23.6%; Average inhibition male (%) [2, 12]: -7.4% |
| Cc1cc(N[C@@H](CC(C)C)C(=O)NCc2cccs2)nc(NCCc2cccs2)n1.O=C(O)C(F)(F)F [TCMDC-134815] | – | – | – | – | – | – | – | – | – | – | % inhibition female (individual replicates) R1 [1, 9]: 9.6%; % inhibition female (individual replicates) R3 [1, 10]: -33.2%; % inhibition female (individual replicates) R4 [1, 11]: 28.8%; Average inhibition female (%) [1, 12]: 0.8%; % inhibition male (individual replicates) R1 [2, 9]: 11.4%; % inhibition male (individual replicates) R3 [2, 10]: 4.6%; % inhibition male (individual replicates) R4 [2, 11]: 26.9%; Average inhibition male (%) [2, 12]: 17.0% |
| CN1CCC(NCc2cccc(-c3nn(C)c4nc(NC5CCCC5)ncc34)c2)CC1 [TCMDC-134840] | – | – | – | – | – | – | – | – | – | – | Average inhibition female (%) [1, 13]: 22.7%; % inhibition female (individual replicates) R1 [1, 14]: 22.9%; % inhibition female (individual replicates) R3 [1, 15]: 25.6%; % inhibition female (individual replicates) R4 [1, 16]: 7.8%; HitlevelF ([1]; number of replicates with >50% inhibition in the female readout, 2µM): 0; Average inhibition male (%) [2, 13]: 82.7%; % inhibition male (individual replicates) R1 [2, 14]: 90.3%; % inhibition male (individual replicates) R3 [2, 15]: 59.9%; % inhibition male (individual replicates) R4 [2, 16]: 92.2%; HitlevelM ([2]; number of replicates with >50% inhibition in the male readout, 2µM): 4 |
| COc1ccc(NC(=O)[C@H](CC(C)C)Nc2cc(C)nc(NCc3ccccc3C)n2)cc1.O=C(O)C(F)(F)F [TCMDC-134909] | 7.3 | 5.6 | -14.2 | 28.8 | – | 9.0 | 15.3 | -6.1 | 18.9 | – | HitlevelF [1, 17]: 0; HitlevelM [2, 18]: 0; Activity [2, 19]: 0 |
| NS(=O)(=O)c1cccc(Nc2nc(N[C@@H]3CCNC3)nc3cc[nH]c(=O)c23)c1.O=C(O)C(F)(F)F [TCMDC-135057] | 3.8 | 4.1 | 1.9 | 9.1 | – | -3.6 | -10.0 | – | -11.4 | – | HitlevelF [1, 17]: 0; HitlevelM [2, 18]: 0; Activity [2, 19]: 0 |
| COc1ccccc1CNc1ccnc(N2CC(Oc3ccc(F)cc3)C2)n1 [TCMDC-135118] | – | – | – | – | – | – | – | – | – | – | % inhibition female (individual replicates) R1 [1, 9]: 24.5%; % inhibition female (individual replicates) R3 [1, 10]: -33.1%; % inhibition female (individual replicates) R4 [1, 11]: 4.4%; Average inhibition female (%) [1, 12]: 3.5%; % inhibition male (individual replicates) R1 [2, 9]: 9.0%; % inhibition male (individual replicates) R3 [2, 10]: -43.0%; % inhibition male (individual replicates) R4 [2, 11]: 42.2%; Average inhibition male (%) [2, 12]: 10.3% |
| CN1CCN(CC2(Nc3nccc(NCCc4cn(C)c5ccccc45)n3)CCCCC2)CC1 [TCMDC-135122] | 24.1 | 17.1 | 12.9 | 28.9 | 0 | 31.6 | 31.6 | 5.8 | 52.9 | 1 | – |
| C#C[C@H]1O[C@@H](n2cnc3c(Nc4cc(Br)cc(C(F)(F)F)c4)ncnc32)[C@H](O)[C@@H]1O [TCMDC-135185] | – | – | – | – | – | – | – | – | – | – | Selectivity ratio F ([1]; HepG2 Tox50 versus female IC50): 10; inhibition at 2 µM ([1]; Plasmodium falciparum, 2µM, 24h preincubation with gametocytes, average of replicates, read-out: Average inhibition female (%)): 3.7%; inhibition at 2 µM ([1]; Plasmodium falciparum, 2µM, 24h preincubation with gametocytes, replicate R1, read-out: % inhibition female (individual replicates) R1): 8.3%; inhibition at 2 µM ([1]; Plasmodium falciparum, 2µM, 24h preincubation with gametocytes, replicate R2, read-out: % inhibition female (individual replicates) R2): -2.8%; inhibition at 2 µM ([1]; Plasmodium falciparum, 2µM, 24h preincubation with gametocytes, replicate R3, read-out: % inhibition female (individual replicates) R3): -10.2%; inhibition at 2 µM ([1]; Plasmodium falciparum, 2µM, 24h preincubation with gametocytes, replicate R4, read-out: % inhibition female (individual replicates) R4): 19.5%; IC50 ([1]; Plasmodium falciparum, PfDGFA, 24 h incubation with gametocytes before induction, female gamete readout, read-out: Female IC50): > 10000 nM; Selectivity Ratio M ([2]; HepG2 Tox50 versus male IC50): 328.28; inhibition at 2 µM ([2]; Plasmodium falciparum, 2µM, 24h preincubation with gametocytes, average of replicates, read-out: Average inhibition male (%)): 97%; inhibition at 2 µM ([2]; Plasmodium falciparum, 2µM, 24h preincubation with gametocytes, replicate R1, read-out: % inhibition male (individual replicates) R1): 97.5%; inhibition at 2 µM ([2]; Plasmodium falciparum, 2µM, 24h preincubation with gametocytes, replicate R2, read-out: % inhibition male (individual replicates) R2): 96.8%; inhibition at 2 µM ([2]; Plasmodium falciparum, 2µM, 24h preincubation with gametocytes, replicate R3, read-out: % inhibition male (individual replicates) R3): 98%; inhibition at 2 µM ([2]; Plasmodium falciparum, 2µM, 24h preincubation with gametocytes, replicate R4, read-out: % inhibition male (individual replicates) R4): 95.6%; IC50 ([2]; Plasmodium falciparum, PfDGFA, 24 h incubation with gametocytes before induction, exflagellation readout, read-out: Male IC50): 300 nM |
